Results reported in patent US11492335B2, “Aryl or heteroaryl triazolone derivatives or salts thereof, or pharmaceutical compositions comprising the same” (YUHAN CORPORATION, priority 2018, dated 2022).
Counter-ions that a name gives are not always drawn.

How the values were obtained:
Type in all cases: biochemical
recombinant human VAP-1 = biological target: T1, recombinant human VAP-1 (Homo sapiens, UniProt Q16853); assay: Activity on recombinant human VAP-1, Amplex Red HRP-coupled hydrogen peroxide assay, benzylamine substrate; conditions: recombinant human VAP-1, benzylamine substrate, 30 min preincubation at 37° C.; read-out: Inhibitory Activity (IC50, nM) human VAP-1
T1 construct: purchased R&D systems
T1 sequence (Q16853 1-763): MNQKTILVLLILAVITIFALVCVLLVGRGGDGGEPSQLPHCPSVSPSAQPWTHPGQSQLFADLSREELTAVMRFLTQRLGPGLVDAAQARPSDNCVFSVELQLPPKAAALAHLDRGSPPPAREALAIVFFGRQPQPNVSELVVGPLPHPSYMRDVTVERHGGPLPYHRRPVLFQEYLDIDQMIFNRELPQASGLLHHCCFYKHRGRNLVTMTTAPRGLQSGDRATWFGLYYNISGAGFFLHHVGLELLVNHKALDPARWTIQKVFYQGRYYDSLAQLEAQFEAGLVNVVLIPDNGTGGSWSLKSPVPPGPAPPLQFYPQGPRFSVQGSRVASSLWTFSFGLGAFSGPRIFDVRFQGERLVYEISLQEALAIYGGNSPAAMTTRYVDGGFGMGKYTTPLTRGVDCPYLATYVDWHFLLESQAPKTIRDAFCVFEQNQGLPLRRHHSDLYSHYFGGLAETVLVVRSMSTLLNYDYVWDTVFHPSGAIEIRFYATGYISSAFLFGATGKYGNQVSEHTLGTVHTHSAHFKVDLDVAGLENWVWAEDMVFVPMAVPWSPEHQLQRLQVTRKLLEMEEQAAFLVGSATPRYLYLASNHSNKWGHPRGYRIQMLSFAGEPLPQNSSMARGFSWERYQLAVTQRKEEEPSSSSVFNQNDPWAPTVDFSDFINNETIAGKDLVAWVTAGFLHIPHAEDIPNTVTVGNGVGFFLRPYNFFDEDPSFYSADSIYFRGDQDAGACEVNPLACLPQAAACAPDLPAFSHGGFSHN
In short: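 Compounds were preincubated with purified enzyme in 50 mM sodium phosphate pH 7.4 at 37 °C for 30 min, then 200 uM Amplex Red, 1 mM benzylamine and 1 U/mL HRP were added. Resorufin fluorescence (ex 544/em 590 nm) was followed over 1-2 h; IC50 came from 4-parameter fits of signal-rate inhibition.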

[1] = biological target: T2, recombinant human MAO-A (monoamine oxidase-A) (Homo sapiens, UniProt P21397); assay: Activity on recombinant human MAO-A, Amplex Red method, 0.5 mM tyramine substrate; conditions: 0.5 mM tyramine, read-out: Inhibitory Activity (IC50, nM) MAO-A
T2 construct: purchased Sigma-Aldrich
T2 sequence (P21397 1-527): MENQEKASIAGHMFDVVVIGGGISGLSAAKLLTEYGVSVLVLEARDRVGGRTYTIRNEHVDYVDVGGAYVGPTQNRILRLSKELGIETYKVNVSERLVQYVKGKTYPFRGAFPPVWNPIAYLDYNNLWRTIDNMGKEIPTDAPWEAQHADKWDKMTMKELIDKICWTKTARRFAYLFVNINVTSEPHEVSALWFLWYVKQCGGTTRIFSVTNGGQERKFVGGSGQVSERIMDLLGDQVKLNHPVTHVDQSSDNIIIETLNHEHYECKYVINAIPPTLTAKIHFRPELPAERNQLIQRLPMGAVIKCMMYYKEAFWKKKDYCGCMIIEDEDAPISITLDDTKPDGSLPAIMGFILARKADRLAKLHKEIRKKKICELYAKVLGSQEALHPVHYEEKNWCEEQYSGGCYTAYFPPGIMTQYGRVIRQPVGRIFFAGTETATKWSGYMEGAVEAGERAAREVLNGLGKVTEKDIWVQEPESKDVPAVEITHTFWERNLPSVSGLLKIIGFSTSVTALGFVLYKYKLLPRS
In short: (§1)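 8-point, 1:3 dose-response, four-parameter logistic IC50 from reduction in fluorescence rate versus DMSO control. HRP/Amplex Red detection of H2O2 (ex 544, em 590 nm) after 30 min, 37 °C compound–enzyme preincubation in pH 7.4 phosphate buffer. MAO-A substrate: 0.5 mM tyramine; MAO-B: 1 mM benzylamine.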

[2] = biological target: T3, recombinant human MAO-B (monoamine oxidase-B) (Homo sapiens, UniProt P27338); assay: Activity on recombinant human MAO-B, Amplex Red method, 1 mM benzylamine substrate; conditions: 1 mM benzylamine, read-out: Inhibitory Activity (IC50, nM) MAO-B
T3 construct: purchased Sigma-Aldrich
T3 sequence (P27338 1-520): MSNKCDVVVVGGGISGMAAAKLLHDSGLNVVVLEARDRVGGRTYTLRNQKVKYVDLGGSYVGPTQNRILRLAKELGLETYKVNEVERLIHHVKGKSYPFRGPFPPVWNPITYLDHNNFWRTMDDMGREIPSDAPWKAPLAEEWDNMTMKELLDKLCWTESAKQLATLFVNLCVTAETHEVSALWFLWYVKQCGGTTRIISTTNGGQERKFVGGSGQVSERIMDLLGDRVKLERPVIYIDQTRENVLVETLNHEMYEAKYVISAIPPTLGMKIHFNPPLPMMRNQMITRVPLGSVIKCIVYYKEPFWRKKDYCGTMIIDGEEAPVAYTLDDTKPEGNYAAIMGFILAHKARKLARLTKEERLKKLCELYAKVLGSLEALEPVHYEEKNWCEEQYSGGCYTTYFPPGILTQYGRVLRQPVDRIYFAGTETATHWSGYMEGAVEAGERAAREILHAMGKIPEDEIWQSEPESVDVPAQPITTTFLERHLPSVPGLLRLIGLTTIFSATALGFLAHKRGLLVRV
In short: as §1

[3] = biological target: T4, recombinant human DAO (diamine oxidase) (Homo sapiens, UniProt P19801); assay: Activity on recombinant human DAO, Amplex Red method, 1 mM putrescine substrate; conditions: recombinant human DAO, 1 mM putrescine; * = between 10 and 100 nM, ** = between 300 and 1000 nM; read-out: Inhibitory Activity (IC50, nM) DAO
T4 construct: purchased R&D systems
T4 sequence (P19801 20-751): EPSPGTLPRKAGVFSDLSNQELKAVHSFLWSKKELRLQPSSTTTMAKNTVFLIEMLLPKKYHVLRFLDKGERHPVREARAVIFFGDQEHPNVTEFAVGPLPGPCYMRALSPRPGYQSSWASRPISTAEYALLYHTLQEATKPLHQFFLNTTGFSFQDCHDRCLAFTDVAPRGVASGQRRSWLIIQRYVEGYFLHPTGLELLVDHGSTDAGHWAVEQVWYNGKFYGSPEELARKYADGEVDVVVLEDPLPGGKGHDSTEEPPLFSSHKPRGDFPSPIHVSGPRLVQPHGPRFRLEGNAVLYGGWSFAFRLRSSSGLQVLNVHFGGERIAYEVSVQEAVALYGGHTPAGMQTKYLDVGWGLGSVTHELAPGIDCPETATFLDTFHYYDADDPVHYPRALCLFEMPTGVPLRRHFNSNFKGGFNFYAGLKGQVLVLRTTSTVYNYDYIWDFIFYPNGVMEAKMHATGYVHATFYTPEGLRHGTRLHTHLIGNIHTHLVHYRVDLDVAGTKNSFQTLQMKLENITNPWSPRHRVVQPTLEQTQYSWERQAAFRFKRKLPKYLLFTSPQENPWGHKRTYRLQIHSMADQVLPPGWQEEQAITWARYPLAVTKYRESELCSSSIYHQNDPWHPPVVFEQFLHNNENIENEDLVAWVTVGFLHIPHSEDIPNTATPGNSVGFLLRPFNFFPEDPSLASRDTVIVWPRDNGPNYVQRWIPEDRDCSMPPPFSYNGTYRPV
In short: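 Inhibition of recombinant human DAO (diamine oxidase, R&D systems) was assessed with the Amplex Red Hydrogen Peroxide Assay Kit. Hydrogen peroxide produced from 1 mM putrescine was detected through an HRP-coupled reaction that converts Amplex Red into fluorescent resorufin, read at 544 nm excitation and 590 nm emission. IC50 values came from four-parameter logistic fits in GraphPad Prism.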

Compound	IC50 (recombinant human VAP-1) [nM]	IC50 [1] [nM]	IC50 [2] [nM]	IC50 [3] [nM]
Cc1cc(-n2cnn(C/C(=C/F)CN)c2=O)cnc1-c1cccc(-c2nc[nH]n2)c1 [Example 116, 2-[(2E)-2-(aminomethyl)-3-fluoroprop-2-en-1-yl]-4-{5-methyl-6-[3-(1H-1,2,4-triazol-3-yl)phenyl]pyridin-3-yl}-2,4-dihydro-3H-1,2,4-triazol-3-one]	0.72	> 100000	6020	< 100
Cc1cc(-n2cnn(C/C(=C/F)CN)c2=O)cnc1-c1ccc2c(c1)OCO2 [Example 117, 2-[(2E)-2-(aminomethyl)-3-fluoroprop-2-en-1-yl]-4-[6-(1,3-benzodioxol-5-yl)-5-methylpyridin-3-yl]-2,4-dihydro-3H-1,2,4-triazol-3-one]	0.21	> 100000	32	2.5
Cc1cc(-n2cnn(C/C(=C/F)CN)c2=O)cnc1-c1ccc2sc(N)nc2c1 [Example 118, 4-[6-(2-amino-1,3-benzothiazol-5-yl)-5-methylpyridin-3-yl]-2-[(2E)-2-(aminomethyl)-3-fluoroprop-2-en-1-yl]-2,4-dihydro-3H-1,2,4-triazol-3-one hydrochloride]	0.34	> 100000	3040	1.7
CC(=O)Nc1ccc(-c2cc(C)c(-n3cnn(C/C(=C/F)CN)c3=O)cn2)cc1 [Example 120, N-[4-(5-{1-[(2E)-2-(aminomethyl)-3-fluoroprop-2-en-1-yl]-5-oxo-1,5-dihydro-4H-1,2,4-triazol-4-yl}-4-methylpyridin-2-yl)phenyl]acetamide]	1.4	> 100000	> 10000	110
Cc1cc(-c2ccc(-c3nc[nH]n3)cc2)ncc1-n1cnn(C/C(=C/F)CN)c1=O [Example 121, 2-[(2E)-2-(aminomethyl)-3-fluoroprop-2-en-1-yl]-4-{4-methyl-6-[4-(1H-1,2,4-triazol-3-yl)phenyl]pyridin-3-yl}-2,4-dihydro-3H-1,2,4-triazol-3-one]	0.7	> 100000	456	< 100
CC(=O)Nc1cc(-c2cc(C)c(-n3cnn(C/C(=C/F)CN)c3=O)cn2)ccn1 [Example 123, N-(5-{1-[(2E)-2-(aminomethyl)-3-fluoroprop-2-en-1-yl]-5-oxo-1,5-dihydro-4H-1,2,4-triazol-4-yl}-4-methyl-2,4′-bipyridin-2′-yl)acetamide]	1.3	> 100000	3220	< 100
Cc1cc(-c2ccc(N3CCOCC3)nc2)ncc1-n1cnn(C/C(=C/F)CN)c1=O [Example 124, 2-[(2E)-2-(aminomethyl)-3-fluoroprop-2-en-1-yl]-4-[4-methyl-6′-(morpholin-4-yl)-2,3′-bipyridin-5-yl]-2,4-dihydro-3H-1,2,4-triazol-3-one]	0.89	> 100000	> 10000	< 100
Cc1cc(-c2ccc3cn[nH]c3c2)ncc1-n1cnn(C/C(=C/F)CN)c1=O [Example 126, 2-[(2E)-2-(aminomethyl)-3-fluoroprop-2-en-1-yl]-4-[6-(1H-indazol-6-yl)-4-methylpyridin-3-yl]-2,4-dihydro-3H-1,2,4-triazol-3-one]	0.87	> 100000	133	< 100

Further lines, results first:

IC50 (recombinant human VAP-1) [nM]	IC50 [1] [nM]	IC50 [2] [nM]	IC50 [3] [nM]	Compound
1.6	> 100000	617	< 100	Cc1cc(-c2ccc3sc(N)nc3c2)ncc1-n1cnn(C/C(=C/F)CN)c1=O [Example 127, 4-[6-(2-amino-1,3-benzothiazol-5-yl)-4-methylpyridin-3-yl]-2-[(2E)-2-(aminomethyl)-3-fluoroprop-2-en-1-yl]-2,4-dihydro-3H-1,2,4-triazol-3-one]
0.45	> 100000	10	< 1	CS(=O)(=O)c1ccc(-c2ccc(-n3cnn(C/C(=C\F)CN)c3=O)nc2)cc1 [Example 129, 2-[(2Z)-2-(aminomethyl)-3-fluoroprop-2-en-1-yl]-4-{5-[4-(methylsulfonyl)phenyl]pyridin-2-yl}-2,4-dihydro-3H-1,2,4-triazol-3-one hydrochloride]
0.39	26000	20	1 to 10	CC(=O)Nc1ccc(-c2ccc(-n3cnn(C/C(=C\F)CN)c3=O)nc2)cc1 [Example 130, N-[4-(6-{1-[(2Z)-2-(aminomethyl)-3-fluoroprop-2-en-1-yl]-5-oxo-1,5-dihydro-4H-1,2,4-triazol-4-yl}pyridin-3-yl)phenyl]acetamide hydrochloride]
0.54	62000	850	280	CC(=O)c1ccc(-c2cnc(-n3cnn(C/C(=C/F)CN)c3=O)c(C)c2)s1 [Example 132, 4-[5-(5-acetylthiophen-2-yl)-3-methylpyridin-2-yl]-2-[(2E)-2-(aminomethyl)-3-fluoroprop-2-en-1-yl]-2,4-dihydro-3H-1,2,4-triazol-3-one hydrochloride]
